System: TNF-α and IL-10 amounts in plasma of LPS-injected BALB/c mice
Test: Endotoxin-induced Cytokine Production
Assay type: in vivo
Settings: 320 mg/kg, administered 30 minutes before LPS 0.1 mg/kg i.v.; plasma one hour after LPS; ELISA
Description: Endotoxin-induced Cytokine Production
BALB/c mice (male, 7 weeks old) were injected i.v. with 0.1 mg/kg of lipopolysaccharides (LPS) in a total volume of 0.2 ml saline. Heparinized blood samples were taken one hour after LPS injection and plasma was collected by centrifugation. TNF-α (inflammatory cytokine) and IL-10 (anti-inflammatory cytokine) amounts in plasma were assayed by ELISA. Test compounds were administered 30 minutes before LPS injection.

| SMILES | IL-10 | TNF-α |
| --- | --- | --- |
| NC(=O)c1cn(C(CO)CCc2ccccc2)cn1 (stereo not drawn) [Example 1, 1-(1-Hydroxy-4-phenyl-2-butyl)imidazole-4-carboxamide] | 137 ± 14 pg/mL | 3.1 ± 0.5 ng/mL |

System: not given
Test: not given
Settings: not given

| SMILES | melting point |
| --- | --- |
| Nc1nc(-c2cn([C@H](CO)CCc3ccccc3)cn2)n[nH]1 | 80 °C (dec.) |
| CCCCCCC(CO)n1cnc(C(N)=O)c1 (stereo not drawn) | 97.5 to 100.5 °C |
| NC(=O)c1cn(C(CO)COc2ccccc2)cn1 (stereo not drawn) | 147.5 to 149.5 °C |
| NC(=O)c1cn(C(CO)c2ccccc2)cn1 (stereo not drawn) | 147 to 149 °C |
| N#Cc1cn(C(CO)CCc2ccccc2)cn1 (stereo not drawn) | 111 to 115 °C |
| CCCC(CO)n1cnc(C(N)=O)c1 (stereo not drawn) | 160 °C |

Further lines, results first:

| melting point | SMILES |
| --- | --- |
| 138 to 141 °C | Cc1ccc(CCC(CO)n2cnc(C(N)=O)c2)cc1 (stereo not drawn) |
| 92 to 95 °C | CCOC(=O)c1cccc(CCC(CO)n2cnc(C(N)=O)c2)c1 (stereo not drawn) |
| 70 to 75 °C | C[C@H](O)[C@@H](CCc1cccc(Cl)c1Cl)n1cnc(C(N)=O)c1 |
| 138.5 to 141 °C | COC(=O)Cc1cccc(CCC(CO)n2cnc(C(N)=O)c2)c1 (stereo not drawn) |
| 103 to 106 °C | NC(=O)c1cn(C(CO)CCc2cccc(C(F)(F)F)c2)cn1 (stereo not drawn) |
| 60 to 62 °C | Cc1ccccc1CC[C@H]([C@H](C)O)n1cnc(C(N)=O)c1 |
| 127 to 129.5 °C | NC(=O)c1cn(C(CO)CCc2ccccc2)cn1 (stereo not drawn) [Example 1, 1-(1-Hydroxy-4-phenyl-2-butyl)imidazole-4-carboxamide] |
